Source: patent publication US20130053430A1, “MODULATION OF CETP EXPRESSION” (Isis Pharmaceuticals, Inc., priority 2010, published 2013)
e = 2'-O-(2-methoxyethyl) (MOE); d = 2'-deoxy (DNA)

Assays:
CETP protein = assay: Plasma CETP protein by ELISA, dose response (Example 9); assay type: in vivo, human; details: huCETP transgenic mice, Western diet, s.c. 6 weeks
Procedure: (§1) Another group received subcutaneous injections of control oligonucleotide ISIS 141923 at a dose of 50 mg/kg/week for 6 weeks. One group of mice received subcutaneous injections of PBS for 6 weeks. The PBS-injected group served as the control group to which treatment groups were compared.
Plasma CETP protein levels were measured by ELISA (Alpco). The results are expressed as percent inhibition of CETP protein, relative to the PBS control.

CETP activity = CETP activity assay kit, dose response (Example 9); assay type: in vivo, human; details: huCETP transgenic mice, Western diet, s.c. 6 weeks
Procedure: as §1
CETP activity levels were measured using a CETP activity assay kit (Roar Biomedical Inc.).

[1] = Plasma cholesterol and triglyceride levels, dose response (Example 9); assay type: in vivo, mice
Procedure: as §1
G. and Dyer, W. J. Can. J. Biochem. Physiol. 37: 911-917, 1959) and measured with an Olympus clinical analyzer (Hitachi Olympus AU400e, Melville, N.Y.). HDL and LDL cholesterol were individually measured by HPLC. Triglyceride levels were measured with the use of a commercially available triglyceride kit (DCL Triglyceride Reagent; Diagnostic Chemicals Ltd.). The results are presented in Tables 47-51 and are expressed in mg/dL.

human CETP mRNA = assay: Antisense inhibition of human CETP mRNA in SW872 liposarcoma cells (Example 1); assay type: cell-based; details: 150 nM antisense oligonucleotide, lipofectin, ~24 hours, relative to untreated control cells
Outline: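 SW872 cells transfected (lipofectin) with 150 nM 5-10-5 MOE gapmer (phosphorothioate, 5-methylcytosine). After about 24 h, CETP mRNA measured by qRT-PCR, normalized to GAPDH; values are % inhibition versus untreated cells.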

[2] = Liver function, plasma ALT and AST (Example 6); assay type: in vivo, mice; details: 50 mg/kg s.c. twice per week
Text: (§2) The normal chow-fed mice were divided into three treatment groups. The cholesterol-enriched chow-fed mice were divided into three treatment groups. […] One chow-fed group and one cholesterol-enriched chow-fed group received subcutaneous injections of saline twice weekly for 6 weeks. The saline-injected groups served as the control groups to which the corresponding oligonucleotide-treated groups were compared.
Plasma concentrations of ALT (alanine transaminase) and AST (aspartate transaminase) at weeks 0, 3 and 6 were measured and the results are presented in Tables 18 and 19 expressed in IU/L.

[3] = Plasma glucose (Example 6); assay type: in vivo, mice; details: 50 mg/kg s.c. twice per week
Procedure: as §2
Plasma glucose values were determined using a Beckman Glucose Analyzer II (Beckman Coulter) by a glucose oxidase method (Lott, J. A. et al., Clin. Chem. 21: 1754-1760, 1975).

Substance: ISIS 141923: CCTTCCCTGAAGGTTCCTCC, 5-10-5 MOE gapmer, a control oligonucleotide which has no known murine target (sugars from the 5' end e5 d10 e5, backbone and methylation of C not given here) [reference compound]
- Percent inhibition of plasma CETP protein levels (CETP protein; Dose 50 mg/kg/wk): 7%
- Percent inhibition of CETP activity (CETP activity; Dose 50 mg/kg/wk): 2%
- HDL cholesterol levels ([1]; 50 mg/kg/wk, Week 0): 87 mg/dL
- LDL cholesterol levels ([1]; 50 mg/kg/wk, Week 0): 54 mg/dL
- Total cholesterol levels ([1]; 50 mg/kg/wk, Week 0): 153 mg/dL
- Triglyceride levels ([1]; 50 mg/kg/wk, Week 0): 49 mg/dL
- % change in HDL levels compared to total cholesterol ([1]; 50 mg/kg/wk, Week 3): −17%
- HDL cholesterol levels ([1]; 50 mg/kg/wk, Week 3): 115 mg/dL
- LDL cholesterol levels ([1]; 50 mg/kg/wk, Week 3): 42 mg/dL
- Total cholesterol levels ([1]; 50 mg/kg/wk, Week 3): 164 mg/dL
- Triglyceride levels ([1]; 50 mg/kg/wk, Week 3): 58 mg/dL
- % change in HDL levels compared to total cholesterol ([1]; 50 mg/kg/wk, Week 6): −23%
- HDL cholesterol levels ([1]; 50 mg/kg/wk, Week 6): 124 mg/dL
- LDL cholesterol levels ([1]; 50 mg/kg/wk, Week 6): 47 mg/dL
- Total cholesterol levels ([1]; 50 mg/kg/wk, Week 6): 180 mg/dL
- Triglyceride levels ([1]; 50 mg/kg/wk, Week 6): 88 mg/dL

Substance: ISIS 349517: 5-10-5 MOE gapmer CAGCACTTTAATGCCAGTGG (sugars from the 5' end e5 d10 e5, backbone and methylation of C not given here)
- % inhibition (human CETP mRNA): 100%
- Alanine transaminase levels ([2]; Cholesterol chow, Week 0): 19 IU/L
- Aspartate transaminase levels ([2]; Cholesterol chow, Week 0): 54 IU/L
- Alanine transaminase levels ([2]; Cholesterol chow, Week 3): 56 IU/L
- Aspartate transaminase levels ([2]; Cholesterol chow, Week 3): 72 IU/L
- Alanine transaminase levels ([2]; Cholesterol chow, Week 6): 76 IU/L
- Aspartate transaminase levels ([2]; Cholesterol chow, Week 6): 113 IU/L
- Alanine transaminase levels ([2]; Normal chow, Week 0): 17 IU/L
- Aspartate transaminase levels ([2]; Normal chow, Week 0): 75 IU/L
- Alanine transaminase levels ([2]; Normal chow, Week 3): 24 IU/L
- Aspartate transaminase levels ([2]; Normal chow, Week 3): 61 IU/L
- Alanine transaminase levels ([2]; Normal chow, Week 6): 158 IU/L
- Aspartate transaminase levels ([2]; Normal chow, Week 6): 196 IU/L
- Glucose levels ([3]; Cholesterol chow, Week 0): 277 mg/dL
- Glucose levels ([3]; Cholesterol chow, Week 3): 245 mg/dL
- Glucose levels ([3]; Cholesterol chow, Week 6): 240 mg/dL
- Glucose levels ([3]; Normal chow, Week 0): 263 mg/dL
- Glucose levels ([3]; Normal chow, Week 3): 257 mg/dL
- Glucose levels ([3]; Normal chow, Week 6): 211 mg/dL
- Percent inhibition of plasma CETP protein levels (CETP protein; Dose 1.5 mg/kg/wk): 58%
- Percent inhibition of plasma CETP protein levels (CETP protein; Dose 5 mg/kg/wk): 74%
- Percent inhibition of plasma CETP protein levels (CETP protein; Dose 15 mg/kg/wk): 81%
- Percent inhibition of plasma CETP protein levels (CETP protein; Dose 50 mg/kg/wk): 80%
- Percent inhibition of CETP activity (CETP activity; Dose 1.5 mg/kg/wk): 33%
- Percent inhibition of CETP activity (CETP activity; Dose 5 mg/kg/wk): 59%
- Percent inhibition of CETP activity (CETP activity; Dose 15 mg/kg/wk): 76%
- Percent inhibition of CETP activity (CETP activity; Dose 50 mg/kg/wk): 77%
- HDL cholesterol levels ([1]; 1.5 mg/kg/wk, Week 0): 80 mg/dL
- LDL cholesterol levels ([1]; 1.5 mg/kg/wk, Week 0): 58 mg/dL
- Total cholesterol levels ([1]; 1.5 mg/kg/wk, Week 0): 154 mg/dL
- Triglyceride levels ([1]; 1.5 mg/kg/wk, Week 0): 63 mg/dL
- % change in HDL levels compared to total cholesterol ([1]; 1.5 mg/kg/wk, Week 3): 12%
- HDL cholesterol levels ([1]; 1.5 mg/kg/wk, Week 3): 117 mg/dL
- LDL cholesterol levels ([1]; 1.5 mg/kg/wk, Week 3): 35 mg/dL
- Total cholesterol levels ([1]; 1.5 mg/kg/wk, Week 3): 171 mg/dL
- Triglyceride levels ([1]; 1.5 mg/kg/wk, Week 3): 50 mg/dL
- % change in HDL levels compared to total cholesterol ([1]; 1.5 mg/kg/wk, Week 6): 24%
- HDL cholesterol levels ([1]; 1.5 mg/kg/wk, Week 6): 132 mg/dL
- LDL cholesterol levels ([1]; 1.5 mg/kg/wk, Week 6): 38 mg/dL
- Total cholesterol levels ([1]; 1.5 mg/kg/wk, Week 6): 180 mg/dL
- Triglyceride levels ([1]; 1.5 mg/kg/wk, Week 6): 91 mg/dL
- HDL cholesterol levels ([1]; 5 mg/kg/wk, Week 0): 88 mg/dL
- LDL cholesterol levels ([1]; 5 mg/kg/wk, Week 0): 62 mg/dL
- Total cholesterol levels ([1]; 5 mg/kg/wk, Week 0): 164 mg/dL
- Triglyceride levels ([1]; 5 mg/kg/wk, Week 0): 57 mg/dL
- % change in HDL levels compared to total cholesterol ([1]; 5 mg/kg/wk, Week 3): 11%
- HDL cholesterol levels ([1]; 5 mg/kg/wk, Week 3): 130 mg/dL
- LDL cholesterol levels ([1]; 5 mg/kg/wk, Week 3): 31 mg/dL
- Total cholesterol levels ([1]; 5 mg/kg/wk, Week 3): 172 mg/dL
- Triglyceride levels ([1]; 5 mg/kg/wk, Week 3): 51 mg/dL
- % change in HDL levels compared to total cholesterol ([1]; 5 mg/kg/wk, Week 6): 23%
- HDL cholesterol levels ([1]; 5 mg/kg/wk, Week 6): 151 mg/dL
- LDL cholesterol levels ([1]; 5 mg/kg/wk, Week 6): 36 mg/dL
- Total cholesterol levels ([1]; 5 mg/kg/wk, Week 6): 202 mg/dL
- Triglyceride levels ([1]; 5 mg/kg/wk, Week 6): 85 mg/dL
- HDL cholesterol levels ([1]; 15 mg/kg/wk, Week 0): 86 mg/dL
- LDL cholesterol levels ([1]; 15 mg/kg/wk, Week 0): 54 mg/dL
- Total cholesterol levels ([1]; 15 mg/kg/wk, Week 0): 152 mg/dL
- Triglyceride levels ([1]; 15 mg/kg/wk, Week 0): 47 mg/dL
- % change in HDL levels compared to total cholesterol ([1]; 15 mg/kg/wk, Week 3): 26%
- HDL cholesterol levels ([1]; 15 mg/kg/wk, Week 3): 141 mg/dL
- LDL cholesterol levels ([1]; 15 mg/kg/wk, Week 3): 32 mg/dL
- Total cholesterol levels ([1]; 15 mg/kg/wk, Week 3): 185 mg/dL
- Triglyceride levels ([1]; 15 mg/kg/wk, Week 3): 48 mg/dL
- % change in HDL levels compared to total cholesterol ([1]; 15 mg/kg/wk, Week 6): 42%
- HDL cholesterol levels ([1]; 15 mg/kg/wk, Week 6): 164 mg/dL
- LDL cholesterol levels ([1]; 15 mg/kg/wk, Week 6): 40 mg/dL
- Total cholesterol levels ([1]; 15 mg/kg/wk, Week 6): 217 mg/dL
- Triglyceride levels ([1]; 15 mg/kg/wk, Week 6): 85 mg/dL
- HDL cholesterol levels ([1]; 50 mg/kg/wk, Week 0): 77 mg/dL
- LDL cholesterol levels ([1]; 50 mg/kg/wk, Week 0): 59 mg/dL
- Total cholesterol levels ([1]; 50 mg/kg/wk, Week 0): 145 mg/dL
- Triglyceride levels ([1]; 50 mg/kg/wk, Week 0): 41 mg/dL
- % change in HDL levels compared to total cholesterol ([1]; 50 mg/kg/wk, Week 3): 43%
- HDL cholesterol levels ([1]; 50 mg/kg/wk, Week 3): 139 mg/dL
- LDL cholesterol levels ([1]; 50 mg/kg/wk, Week 3): 33 mg/dL
- Total cholesterol levels ([1]; 50 mg/kg/wk, Week 3): 184 mg/dL
- Triglyceride levels ([1]; 50 mg/kg/wk, Week 3): 49 mg/dL
- % change in HDL levels compared to total cholesterol ([1]; 50 mg/kg/wk, Week 6): 37%
- HDL cholesterol levels ([1]; 50 mg/kg/wk, Week 6): 123 mg/dL
- LDL cholesterol levels ([1]; 50 mg/kg/wk, Week 6): 38 mg/dL
- Total cholesterol levels ([1]; 50 mg/kg/wk, Week 6): 170 mg/dL
- Triglyceride levels ([1]; 50 mg/kg/wk, Week 6): 60 mg/dL

Substance: ISIS 349511: 5-10-5 MOE gapmer CCCGACCTCCTTGGAGACTT (sugars from the 5' end e5 d10 e5, backbone and methylation of C not given here)
- % inhibition (human CETP mRNA): 66%
- Alanine transaminase levels ([2]; Cholesterol chow, Week 0): 28 IU/L
- Aspartate transaminase levels ([2]; Cholesterol chow, Week 0): 49 IU/L
- Alanine transaminase levels ([2]; Cholesterol chow, Week 3): 28 IU/L
- Aspartate transaminase levels ([2]; Cholesterol chow, Week 3): 44 IU/L
- Alanine transaminase levels ([2]; Cholesterol chow, Week 6): 66 IU/L
- Aspartate transaminase levels ([2]; Cholesterol chow, Week 6): 123 IU/L
- Alanine transaminase levels ([2]; Normal chow, Week 0): 16 IU/L
- Aspartate transaminase levels ([2]; Normal chow, Week 0): 89 IU/L
- Alanine transaminase levels ([2]; Normal chow, Week 3): 22 IU/L
- Aspartate transaminase levels ([2]; Normal chow, Week 3): 47 IU/L
- Alanine transaminase levels ([2]; Normal chow, Week 6): 22 IU/L
- Aspartate transaminase levels ([2]; Normal chow, Week 6): 81 IU/L
- Glucose levels ([3]; Cholesterol chow, Week 0): 238 mg/dL
- Glucose levels ([3]; Cholesterol chow, Week 3): 289 mg/dL
- Glucose levels ([3]; Cholesterol chow, Week 6): 225 mg/dL
- Glucose levels ([3]; Normal chow, Week 0): 239 mg/dL
- Glucose levels ([3]; Normal chow, Week 3): 288 mg/dL
- Glucose levels ([3]; Normal chow, Week 6): 206 mg/dL
